Reference: ChEMBL document CHEMBL5537149, “Design, synthesis, and lead optimization of piperazinyl-pyrimidine analogues as potent small molecules targeting the viral capping machinery of Chikungunya virus” (Eur J Med Chem, 2024)
Converted amounts (≈) assume the structure as drawn. The source made the active and inactive calls. The calls are words filed in the database; no cut-off is given here.

Legend:
Caco-2 [1] = assay: Induction of apoptosis in human Caco-2 cells assessed as increase in caspase-3 expression at 6.25 to 100 uM incubated for 72 hrs by Western blot analysis; assay type: toxicity, cell-based; conditions: caco-2, 72 h, dose 6.25-100 µM
[2] = Aqueous solubility of compound at pH 7.4 by HPLC analysis; assay type: physicochemical
Chikungunya virus [3] = assay: Antiviral activity against Chikungunya virus infected in African green monkey Vero cells assessed as reduction in viral induced cell death incubated for 5 days by MTS reagent based absorbance method; assay type: functional, organism-based; conditions: 120 h
Chikungunya virus [4] = assay: Antiviral activity against Chikungunya virus 899 infected in African green monkey Vero cells assessed as reduction in viral RNA replication preincubated for 2 hrs with subsequent viral infected followed by media replacement with compound and measured after 48 hrs by qRT-PCR analysis; assay type: functional, organism-based; conditions: dose 0.25-60 µM, time 50.0 hrs
Chikungunya virus [5] = assay: Fold resistance , ratio of EC50 for antiviral activity against CHVB-resistant Chikungunya virus infected in African green monkey Vero cells to EC50 for antiviral activity against wildtype Chikungunya virus 899 infected in African green monkey Vero cells; assay type: functional
[6] = Selectivity index, ratio of CC50 for cytotoxicity against African green monkey Vero cells to EC50 for antiviral activity against Chikungunya virus infected in African green monkey Vero cells assessed as reduction in viral induced cell death; assay type: toxicity, cell-based; conditions: read-out: Ratio CC50/EC50
Caco-2 [7] = assay: Induction of apoptosis in human Caco-2 cells assessed as increase in PARP expression at 6.25 to 100 uM incubated for 72 hrs by Western blot analysis; assay type: toxicity, cell-based; conditions: caco-2, 72 h, dose 6.25-100 µM
[8] = Cytotoxicity against African green monkey Vero cells assessed as reduction in overall metabolic activity incubated for 5 days by MTS reagent based absorbance method; assay type: toxicity, cell-based; conditions: chlorocebus sabaeus, time 5 day
Caco-2 [9] = assay: Cytotoxicity against human Caco-2 cells incubated for 24 to 72 hrs by MTT assay; assay type: toxicity, cell-based; conditions: time 24-72 hrs
[10] = Metabolic stability in human liver microsomes assessed as half-life preincubated for 5 mins followed by NADPH addition and measured upto 60 mins by HPLC-MS/MS analysis; assay type: ADME, Microsome; conditions: time < 65 min
Semliki Forest virus = assay: Antiviral activity against Semliki forest virus infected in African green monkey Vero cells assessed as reduction in virus induced cell death; assay type: functional, organism-based
Enterovirus = assay: Antiviral activity against Human enterovirus 71 infected in African green monkey Vero cells assessed as reduction in virus induced cell death; assay type: functional, organism-based
Sindbis virus = assay: Antiviral activity against Sindbis virus HRsp infected in African green monkey Vero cells assessed as reduction in virus induced cell death; assay type: functional, organism-based
Zika virus = assay: Antiviral activity against Zika virus infected in African green monkey Vero cells assessed as reduction in virus induced cell death; assay type: functional, organism-based
Chikungunya virus [11] = assay: (§1) Antiviral activity against Chikungunya virus 899 infected in African green monkey Vero cells assessed as log10 reduction in intracellular viral level at 2.22 uM preincubated for 2 hrs with subsequent viral infected followed by media replacement with compound and measured after 48 hrs by qRT-PCR analysis; assay type: functional; conditions: time 50 hrs
Chikungunya virus [12] = assay: as §1, with “60” for “2.22”; assay type: functional; conditions: time 50 hrs

| SMILES | Activity (Caco-2 [1]) | solubility [2] | EC50 (Chikungunya virus [3]) | Activity (Chikungunya virus [4]) | Ratio EC50 (Chikungunya virus [5]) | selectivity ratio [6] | Activity (Caco-2 [7]) | CC50 at 120 h [8] | Activity (Caco-2 [9]) | half-life [10] | Activity (Semliki Forest virus) | Activity (Enterovirus) | Activity (Sindbis virus) | Activity (Zika virus) | log(activity) (Chikungunya virus [11]) | log(activity) (Chikungunya virus [12]) |
| --- | --- | --- | --- | --- | --- | --- | --- | --- | --- | --- | --- | --- | --- | --- | --- | --- |
| CCNc1nc(C)cc(N2CCN(C(=O)c3cc(Cl)cc(Cl)c3)CC2)n1 | Non-Toxic | 108 µM (≈ 42.6 µg/mL) | 0.47 µM | Dose-Dependent Effect | 9.7 | 173 | Non-Toxic | 80 µM | Non-Toxic | > 1 h |  |  |  |  |  |  |
| CCNc1nc(C)cc(N2CCN(C(=O)c3cccc(Br)c3)CC2)n1 | Non-Toxic | > 120 µM | 0.94 µM |  |  | > 107 | Non-Toxic | > 100 µM | Non-Toxic | > 1 h |  |  |  |  |  |  |
| CCCS(=O)(=O)N1CCN(c2nc(C)cc(NCC)n2)CC1 |  | > 120 µM | 70 µM |  |  |  |  |  |  |  | inactive | inactive | inactive | inactive |  |  |
| CCNc1cc(C)nc(N2CCN(C(=O)c3ccc(Cl)cc3)CC2)n1 |  | > 120 µM | 2.4 µM |  |  | 37 |  | 89 µM |  | > 1 h |  |  |  |  |  |  |
| CCNc1nc(C)cc(N2CCN(C(=O)c3ccc(C)cc3)CC2)n1 |  | > 120 µM | 2.4 µM |  |  | 84 |  | 203 µM |  | > 1 h |  |  |  |  |  |  |
| CCNc1cc(C)nc(N2CCN(C(=O)c3cccc(Br)c3)CC2)n1 |  | > 120 µM | 5.1 µM |  |  | > 20 |  | > 100 µM |  | 0.158 h |  |  |  |  |  |  |
| CCNc1nc(C)cc(N2CCN(C(=O)c3ccc(Cl)c(C(F)(F)F)c3)CC2)n1 |  | 101 µM (≈ 43.2 µg/mL) | 1.9 µM |  |  | > 11 |  | > 20 µM |  | > 1 h |  |  |  |  |  |  |
| CCNc1nc(C)cc(N2CCN(C(=O)c3cccc(C(F)(F)F)c3)CC2)n1 |  | > 120 µM | 1.3 µM |  |  | 60 |  | 80 µM |  | > 1 h |  |  |  |  |  |  |
| Cc1cc(N2CCN(S(=O)(=O)c3ccc(Cl)cc3)CC2)nc(NC(C)C)n1 |  | 76 µM (≈ 31.2 µg/mL) | 3.8 µM |  |  | 4.9 |  | 19 µM |  | 0.9 h |  |  |  |  |  |  |
| CCNc1nc(C)cc(N2CCN(C(=O)c3cccc([N+](=O)[O-])c3)CC2)n1 | Non-Toxic | > 120 µM | 0.7 µM | Dose-Dependent Effect | 13.3 | > 143 | Non-Toxic | > 100 µM | Non-Toxic | > 1 h |  |  |  |  | ~4.5 |  |
| CCNc1nc(C)cc(N2CCN(C(=O)c3ccc(OC)cc3)CC2)n1 | Non-Toxic | > 120 µM | 1.4 µM |  |  | 97 | Non-Toxic | 136 µM | Non-Toxic | > 1 h |  |  |  |  |  |  |
| CCNc1nc(C)cc(N2CCN(C(=O)c3cccc(I)c3)CC2)n1 |  | > 120 µM | 1 µM |  |  | > 98 |  | > 100 µM |  | 0.7 h |  |  |  |  |  |  |
| Cc1cc(N2CCN(C(=O)c3cc(Cl)cc(Cl)c3)CC2)nc(N(C)C)n1 |  | 109 µM (≈ 43 µg/mL) | 4.4 µM |  |  | 15 |  | 67 µM |  | > 1 h |  |  |  |  |  |  |
| CCCC(=O)N1CCN(c2nc(C)cc(NCC)n2)CC1 |  | > 120 µM | 67 µM |  |  |  |  |  |  |  | inactive | inactive | inactive | inactive |  |  |
| CCNc1cc(C)nc(N2CCN(S(=O)(=O)c3ccc4ccccc4c3)CC2)n1 |  | 90 µM (≈ 37 µg/mL) | 10 µM |  |  | 1.7 |  | 17 µM |  | 0.333 h |  |  |  |  |  |  |
| CCNc1nc(C)cc(N2CCN(C(=O)c3ccc(C)c(C)c3)CC2)n1 |  | 118 µM (≈ 41.7 µg/mL) | 0.95 µM |  |  | 68 |  | 65 µM |  | > 1 h |  |  |  |  |  |  |
| Cc1cc(N(C)C)nc(N2CCN(C(=O)c3ccc(Br)cc3)CC2)n1 |  | 114 µM (≈ 46.1 µg/mL) | 13 µM |  |  | 6.02 |  | 76 µM |  | 0.483 h |  |  |  |  |  |  |
| CCNc1nc(C)cc(N2CCN(C(=O)c3ccccc3)CC2)n1 |  | > 120 µM | 2.05 µM |  |  | > 150 |  | > 308 µM |  | > 1 h |  |  |  |  |  |  |

| SMILES | Activity (Caco-2 [1]) | solubility [2] | EC50 (Chikungunya virus [3]) | Activity (Chikungunya virus [4]) | Ratio EC50 (Chikungunya virus [5]) | selectivity ratio [6] | Activity (Caco-2 [7]) | CC50 at 120 h [8] | Activity (Caco-2 [9]) | half-life [10] | Activity (Semliki Forest virus) | Activity (Enterovirus) | Activity (Sindbis virus) | Activity (Zika virus) | log(activity) (Chikungunya virus [11]) | log(activity) (Chikungunya virus [12]) |
| --- | --- | --- | --- | --- | --- | --- | --- | --- | --- | --- | --- | --- | --- | --- | --- | --- |
| CCNc1nc(C)cc(N2CCN(C(=O)c3ccc(I)cc3)CC2)n1 | Non-Toxic | 112 µM (≈ 50.5 µg/mL) | 0.7 µM |  |  | 82 | Non-Toxic | 58 µM | Non-Toxic | > 1 h |  |  |  |  |  |  |
| Cc1cc(N2CCN(C(=O)c3ccc(Br)cc3)CC2)nc(N(C)C)n1 |  | > 120 µM | 6.6 µM |  |  | > 15 |  | > 100 µM |  | > 1 h |  |  |  |  |  |  |
| CNc1nc(C)cc(N2CCN(S(=O)(=O)c3ccc(F)cc3)CC2)n1 |  | > 120 µM | 11 µM |  |  | 9.2 |  | 99 µM |  | > 1 h |  |  |  |  |  |  |
| CCNc1nc(C)cc(N2CCN(C(=O)c3ccc(Cl)c(Cl)c3)CC2)n1 | Non-Toxic | 111 µM (≈ 43.8 µg/mL) | 0.57 µM |  |  | 81 | Non-Toxic | 46 µM | Non-Toxic | > 1 h |  |  |  |  |  |  |
| CCNc1nc(C)cc(N2CCN(C(=O)c3cccc(Cl)c3)CC2)n1 |  | > 120 µM | 6.6 µM |  |  | 38 |  | 248 µM |  | > 1 h |  |  |  |  |  |  |
| CCNc1nc(C)cc(N2CCN(Cc3ccc(F)cc3)CC2)n1 |  | 106 µM (≈ 34.9 µg/mL) | 22 µM |  |  | 2.1 |  | 46 µM |  | > 1 h |  |  |  |  |  |  |
| CCNc1nc(C)cc(N2CCN(C(=O)c3ccc(Cl)c([N+](=O)[O-])c3)CC2)n1 |  | > 120 µM | 0.98 µM |  |  | > 20 |  | > 20 µM |  | > 1 h |  |  |  |  |  |  |
| CCNc1nc(C)cc(NC2CCN(C(=O)c3cc(Cl)cc(Cl)c3)CC2)n1 |  | 101 µM (≈ 41.2 µg/mL) | 14 µM |  |  | 3.4 |  | 47 µM |  | > 1 h |  |  |  |  |  |  |
| CCNc1ccnc(N2CCN(C(=O)c3ccc(F)cc3)CC2)n1 |  | > 120 µM | 3.9 µM |  |  | 47 |  | 183 µM |  | > 1 h |  |  |  |  |  |  |
| CCNc1ccnc(N2CCN(C(=O)c3ccc(Cl)cc3)CC2)n1 |  | > 120 µM | 15 µM |  |  | 3.1 |  | 47 µM |  | > 1 h |  |  |  |  |  |  |
| CCNc1nc(C)cc(N2CCN(C(=O)c3ccc(Br)cc3)CC2)n1 | Non-Toxic | > 120 µM | 0.6 µM | Dose-Dependent Effect | 8.9 | > 159 | Non-Toxic | > 96 µM | Non-Toxic | > 1 h |  |  |  |  | ~4.5 | >5 |
| CCNc1ccnc(N2CCN(S(=O)(=O)c3ccc(Cl)cc3)CC2)n1 |  | 94 µM (≈ 35.9 µg/mL) | 10 µM |  |  | 2.7 |  | 28 µM |  | 0.317 h |  |  |  |  |  |  |
| CCNc1nc(C)cc(N2CCN(C(=O)c3ccc([N+](=O)[O-])cc3Cl)CC2)n1 | Non-Toxic | 111 µM (≈ 44.9 µg/mL) | > 0.78 µM | Dose-Dependent Effect | 15.1 |  | Non-Toxic | > 100 µM | Non-Toxic | > 1 h |  |  |  |  |  |  |
| CCNc1cc(C)nc(N2CCN(C(=O)c3ccc(Br)cc3)CC2)n1 |  | 116 µM (≈ 46.9 µg/mL) | 9.58 µM |  |  | > 10 |  | > 100 µM |  | > 1 h |  |  |  |  |  |  |
| CCNc1nc(C)cc(N2CCCC(NC(=O)c3cc(Cl)cc(Cl)c3)C2)n1 (stereo not drawn) |  | 22 µM (≈ 8.98 µg/mL) | > 100 µM |  |  | < 0.12 |  | 12 µM |  | 0.733 h |  |  |  |  |  |  |
| CCNc1nc(C)cc(N2CCN(C(=O)c3ccc(F)cc3)CC2)n1 | Non-Toxic | > 120 µM | 1.52 µM |  |  | 109 | Non-Toxic | 165 µM | Non-Toxic | > 1 h | inactive | inactive | inactive | inactive |  |  |
| CCNc1nc(C)cc(N2CCN(C(=O)c3ccc(C(C)(C)C)cc3)CC2)n1 |  | 120 µM (≈ 45.8 µg/mL) | 2.4 µM |  |  | 19 |  | 45 µM |  | > 1 h |  |  |  |  |  |  |
